Measurements reported in PMC4725915, “Ruthenium(II) Complexes with 2-Phenylimidazo[4,5-f][1,10]phenanthroline Derivatives that Strongly Combat Cisplatin-Resistant Tumor Cells” (Scientific Reports, 2016).

Test system: TrxR
Assay: Western blot of TrxR expression in A549R cells
Assay type: cell-based, human
Conditions: different concentrations, 12 h
Source text: The elevated levels of TrxR in cancers, especially in non-small cell lung cancers, are responsible for drug resistance. The thioredoxin system has a significant influence on intracellular physiological processes, such as antioxidant defense, cell functions, cell apoptosis and cell proliferation. TrxR has previously been identified as a drug target. […] In addition, the expression levels of TrxR in A549R cells in response to the addition of complex 4 were also examined by Western blot analysis.
A549R cells were seeded into 10 cm tissue culture dishes (Corning), incubated for 24 h, and treated with complex 4 for 12 h. The cells were washed with ice-cold PBS and lysed by incubation in radio immune precipitation assay buffer (RIPA) and a protease inhibitor cocktail (Sigma) for 30 min on ice. The lysates were centrifuged at 15000 rpm for 15 min at 4 °C, and the protein concentrations were quantified by a BCA protein assay reagent kit (Sigma). The proteins were separated on precast NuPAGE 4% to 12% polyacrylamide gradient Bis–Tris gels (Invitrogen) under denaturing conditions, transferred to PVDF membranes (Invitrogen), and subjected to Western blot analyses. […] The bound immune complexes were detected using an ECL prime Western blot detection reagent (Amersham Inc., USA). […]

Ru(phen)(bzq)(tbtfpip)(PF6) [Complex 4]
expression levels of TrxR: downregulated
